Values joined by “and” are separate entries in the source; they are usually repeats but may differ in a detail not shown here. Identical values can stand only once.
Key:
[1] = biological target: LC3A (Homo sapiens, UniProt Q9H492); assay: FP assay with 10O5- and 8F20-based dye-linked tracers 16 and 17; details: for Fluorescence polarization, protein titration LC3A with tween / Fluorescence polarization, protein titration LC3A without tween: replicates; for Fluorescence polarization, displacement experiment LC3A: competing compound not named, duplicates
Text: (§2) The only experimental difference in our FP assay setup was the addition of 0.05% Tween-20, which is routinely used[27] to suppress unspecific binding of compounds to proteins.
(§3) Fluorescence polarization assay utilizing tracers 16 and 17 for interaction studies with LC3A
(§4) (upper panels) and LC3B (lower panels). The left panels depict protein titration measurements
(§5) detergent in the buffer to suppress unspecific binding. Middle panels depict displacement
Data were collected in technical
(§6) triplicates with error bars expressing the SD (n=3).

[2] = biological target: T1, NanoLuc-fusion full-length LC3A (Homo sapiens, UniProt Q9H492); assay: NanoBRET cellular target engagement assay in HEK293T cells; assay type: cell-based; details: for NanoBRET signal, tracer titration, LC3A: replicates
T1 construct: a fluorescent donor (in this case full length LC3A and LC3B); expressed in transfected cells; host or cells: HEK293T (ATCC; CRL-11268)
Experimental: (§1) NanoBRET cellular target engagement assay: Constructs contained the cDNA of full-length LC3A and LC3B cloned in frame with an N-terminal NanoLuc-fusion. Plasmids were transfected into HEK293T (ATCC; CRL-11268) cells using FuGENE HD (Promega, E2312) and proteins were allowed to express for 20 h. 10O5 and 8F20-based tracers were titrated to the protein as depicted in Supplementary Fig. 4d. For competition experiments, 1 µM of the tracers was pipetted into white 384-well plates (Greiner 781 207) using an Echo 550 acoustic dispenser (Labcyte) containing LC3A/LC3B expressing transfected cells at a density of 2.5 × 10^5 cells/mL in Opti-MEM without phenol red (Life Technologies). The system was allowed to equilibrate for 2 h at 37 °C and 5% CO2 prior to BRET measurements. To measure BRET, NanoBRET NanoGlo Substrate + Extracellular NanoLuc Inhibitor (Promega, N2540) was added as per the manufacturer’s protocol, and filtered luminescence was measured on a PHERAstar plate reader (BMG Labtech) equipped with a luminescence filter pair (450 nm BP filter (donor) and 610 nm LP filter (acceptor)). Competitive displacement data were then plotted using GraphPad Prism 9.3 software using a normalized 3-parameter curve fit. A detailed step-by-step protocol for this assay is described in Schwalm..

[3] = biological target: T2, NanoLuc-fusion full-length LC3B (Homo sapiens, UniProt Q9GZQ8); assay: as above; assay type: cell-based; details: for NanoBRET signal, tracer titration, LC3B: replicates
T2 construct: a fluorescent donor (in this case full length LC3A and LC3B); expressed in transfected cells; host or cells: HEK293T (ATCC; CRL-11268)
Experimental: as §1

[4] = biological target: LC3B (Homo sapiens, UniProt Q9GZQ8); assay: FP assay with 10O5- and 8F20-based dye-linked tracers 16 and 17; details: for Fluorescence polarization, protein titration LC3B with tween / Fluorescence polarization, protein titration LC3B without tween: replicates; for Fluorescence polarization, displacement experiment LC3B: competing compound not named, duplicates
Text: as §2, §3, §4, §5
Data were collected in technical
as §6

## O=C(CCC1=[N+]2C(=Cc3ccc(-c4ccc[nH]4)n3[B-]2(F)F)C=C1)NCCCOCCOCCOCCCNC(=O)COc1c(Br)cc(C=C2C(=O)Nc3ccc(I)cc32)cc1Br (mixture of isomers) [Tracer 16]
[1]; Protein 0.1 µM
  Fluorescence polarization, protein titration LC3A with tween: 17 and 27 and 22 and 26
  Fluorescence polarization, protein titration LC3A without tween: 141 and 128 and 122 and 148
[1]; Protein 0.25 µM
  Fluorescence polarization, protein titration LC3A with tween: 23 and 27 (2×) and 19
  Fluorescence polarization, protein titration LC3A without tween: 184 and 161 and 131 and 173
[1]; Protein 0.5 µM
  Fluorescence polarization, protein titration LC3A with tween: 22 and 18 and 24 and 23
  Fluorescence polarization, protein titration LC3A without tween: 214 and 168 and 152 and 148
[1]; Protein 1 µM
  Fluorescence polarization, protein titration LC3A with tween: 36 and 25 and 24 and 27
  Fluorescence polarization, protein titration LC3A without tween: 178 and 174 and 173 and 142
[1]; Protein 5 µM
  Fluorescence polarization, protein titration LC3A with tween: 23 and 19 and 21 and 25
  Fluorescence polarization, protein titration LC3A without tween: 196 and 185 and 203 and 124
[1]; Protein 10 µM
  Fluorescence polarization, protein titration LC3A with tween: 18 and 19 and 20 and 25
  Fluorescence polarization, protein titration LC3A without tween: 234 and 191 and 193 and 156
[1]; Protein 25 µM
  Fluorescence polarization, protein titration LC3A with tween: 18 and 17 and 26 and 19
[1]; Protein 50 µM
  Fluorescence polarization, protein titration LC3A with tween: 29 and 17 and 28 and 31
  Fluorescence polarization, protein titration LC3A without tween: 218 and 219 and 177 and 165
[1]; log Compound [M] -4.6031
  Fluorescence polarization, displacement experiment LC3A: 87.7778 and 70
[1]; log Compound [M] -5.05839
  Fluorescence polarization, displacement experiment LC3A: 106.667 and 93.3333
[1]; log Compound [M] -5.42608
  Fluorescence polarization, displacement experiment LC3A: 111.111 and 106.667
[1]; log Compound [M] -5.727
  Fluorescence polarization, displacement experiment LC3A: 116.667 and 108.889
[1]; log Compound [M] -6.20412
  Fluorescence polarization, displacement experiment LC3A: 80 and 87.7778
[1]; log Compound [M] -6.6031
  Fluorescence polarization, displacement experiment LC3A: 94.4444 and 87.7778
[1]; log Compound [M] -7.05839
  Fluorescence polarization, displacement experiment LC3A: 96.6667 and 90
[1]; log Compound [M] -7.42608
  Fluorescence polarization, displacement experiment LC3A: 98.8889 and 88.8889
[1]; log Compound [M] -7.727
  Fluorescence polarization, displacement experiment LC3A: 95.5556 and 110
[1]; log Compound [M] -8.20412
  Fluorescence polarization, displacement experiment LC3A: 83.3333 and 101.111
[1]; log Compound [M] -8.60189
  Fluorescence polarization, displacement experiment LC3A: 82.2222 and 100
[2]; log tracer [M] -6.00109, NanoLuciferase-tagged LC3A
  NanoBRET signal, tracer titration, LC3A: 124.819 and 118.345 and 124.774 and 114.881
[2]; log tracer [M] -6.30155, NanoLuciferase-tagged LC3A
  NanoBRET signal, tracer titration, LC3A: 112.067 and 104.028 and 114.067 and 103.426
[2]; log tracer [M] -6.60241, NanoLuciferase-tagged LC3A
  NanoBRET signal, tracer titration, LC3A: 103.182 and 101.845 and 103.925 and 98.4465
[2]; log tracer [M] -6.90309, NanoLuciferase-tagged LC3A
  NanoBRET signal, tracer titration, LC3A: 99.2084 and 97.2576 and 109.844 and 92.211
[2]; log tracer [M] -7.30112, NanoLuciferase-tagged LC3A
  NanoBRET signal, tracer titration, LC3A: 98.651 and 96.9847 and 99.2163 and 92.7664
[2]; log tracer [M] -7.60206, NanoLuciferase-tagged LC3A
  NanoBRET signal, tracer titration, LC3A: 97.6362 and 98.7001 and 95.2489 and 95.6855
[2]; log tracer [M] -7.92154, NanoLuciferase-tagged LC3A
  NanoBRET signal, tracer titration, LC3A: 98.1785 and 98.6876 and 96.8478 and 95.5754
[2]; log tracer [M] -8.22214, NanoLuciferase-tagged LC3A
  NanoBRET signal, tracer titration, LC3A: 94.3049 and 97.3658 and 91.0337 and 96.1748
[2]; log tracer [M] -8.52302, NanoLuciferase-tagged LC3A
  NanoBRET signal, tracer titration, LC3A: 97.3466 and 97.3205 and 85.6953 and 96.3749
[2]; log tracer [M] -8.82391, NanoLuciferase-tagged LC3A
  NanoBRET signal, tracer titration, LC3A: 89.2788 and 95.7646 and 83.5217 and 94.9158
[2]; log tracer [M] -9.00004, NanoLuciferase-tagged LC3A
  NanoBRET signal, tracer titration, LC3A: 83.6211 and 94.4654 and 83.1958 and 94.9397
[3]; log tracer [M] -6.00109, NanoLuciferase-tagged LC3B
  NanoBRET signal, tracer titration, LC3B: 120.842 and 122.882 and 129.602 and 128.339
[3]; log tracer [M] -6.30155, NanoLuciferase-tagged LC3B
  NanoBRET signal, tracer titration, LC3B: 120.38 and 105.763 and 124.568 and 118.005
[3]; log tracer [M] -6.60241, NanoLuciferase-tagged LC3B
  NanoBRET signal, tracer titration, LC3B: 113.602 and 104.043 and 104.401 and 107.212
[3]; log tracer [M] -6.90309, NanoLuciferase-tagged LC3B
  NanoBRET signal, tracer titration, LC3B: 98.6453 and 100.848 and 108.512 and 103.133
[3]; log tracer [M] -7.30112, NanoLuciferase-tagged LC3B
  NanoBRET signal, tracer titration, LC3B: 89.1385 and 91.7873 and 88.9398 and 88.605
[3]; log tracer [M] -7.60206, NanoLuciferase-tagged LC3B
  NanoBRET signal, tracer titration, LC3B: 87.7818 and 86.5962 and 85.9928 and 88.5055
[3]; log tracer [M] -7.92154, NanoLuciferase-tagged LC3B
  NanoBRET signal, tracer titration, LC3B: 85.4561 and 91.534 and 90.0484 and 87.589
[3]; log tracer [M] -8.22214, NanoLuciferase-tagged LC3B
  NanoBRET signal, tracer titration, LC3B: 87.644 and 91.0185 and 90.3527 and 95.3228
[3]; log tracer [M] -8.52302, NanoLuciferase-tagged LC3B
  NanoBRET signal, tracer titration, LC3B: 88.7452 and 86.3664 and 89.605 and 108.381
[3]; log tracer [M] -8.82391, NanoLuciferase-tagged LC3B
  NanoBRET signal, tracer titration, LC3B: 86.7783 and 81.6186 and 84.8664 and 94.2613
[3]; log tracer [M] -9.00004, NanoLuciferase-tagged LC3B
  NanoBRET signal, tracer titration, LC3B: 83.8822 and 80.9003 and 85.0772 and 83.4655
[4]; Protein 0.1 µM
  Fluorescence polarization, protein titration LC3B with tween: 14 and 24 and 21 and 25
  Fluorescence polarization, protein titration LC3B without tween: 191 and 155 and 157 and 173
[4]; Protein 0.25 µM
  Fluorescence polarization, protein titration LC3B with tween: 30 and 20 (2×) and 28
  Fluorescence polarization, protein titration LC3B without tween: 187 and 186 and 175 and 167
[4]; Protein 0.5 µM
  Fluorescence polarization, protein titration LC3B with tween: 23 and 18 and 30 and 16
  Fluorescence polarization, protein titration LC3B without tween: 191 and 197 and 195 and 171
[4]; Protein 1 µM
  Fluorescence polarization, protein titration LC3B with tween: 18 and 20 and 17 and 25
  Fluorescence polarization, protein titration LC3B without tween: 223 and 203 and 198 and 217
[4]; Protein 5 µM
  Fluorescence polarization, protein titration LC3B with tween: 24 (2×) and 19 and 17
  Fluorescence polarization, protein titration LC3B without tween: 203 and 175 and 213 and 191
[4]; Protein 10 µM
  Fluorescence polarization, protein titration LC3B with tween: 26 and 22 and 24 and 28
  Fluorescence polarization, protein titration LC3B without tween: 222 and 196 and 207 and 175
[4]; Protein 25 µM
  Fluorescence polarization, protein titration LC3B with tween: 25 and 29 and 18 and 31
  Fluorescence polarization, protein titration LC3B without tween: 233 and 224 and 191 and 192
[4]; Protein 50 µM
  Fluorescence polarization, protein titration LC3B with tween: 16 and 30 and 20 and 21
  Fluorescence polarization, protein titration LC3B without tween: 207 and 200 and 195 and 162
[4]; log Compound [M] -4.6031
  Fluorescence polarization, displacement experiment LC3B: 127.5 and 111.25
[4]; log Compound [M] -5.05839
  Fluorescence polarization, displacement experiment LC3B: 100 and 118.75
[4]; log Compound [M] -5.42608
  Fluorescence polarization, displacement experiment LC3B: 91.25 and 100.625
[4]; log Compound [M] -5.727
  Fluorescence polarization, displacement experiment LC3B: 105 and 99.375
[4]; log Compound [M] -6.20412
  Fluorescence polarization, displacement experiment LC3B: 76.875 and 78.125
[4]; log Compound [M] -6.6031
  Fluorescence polarization, displacement experiment LC3B: 97.5 and 96.25
[4]; log Compound [M] -7.05839
  Fluorescence polarization, displacement experiment LC3B: 95 and 98.75
[4]; log Compound [M] -7.42608
  Fluorescence polarization, displacement experiment LC3B: 104.375 and 100
[4]; log Compound [M] -7.727
  Fluorescence polarization, displacement experiment LC3B: 103.125 and 101.875
[4]; log Compound [M] -8.20412
  Fluorescence polarization, displacement experiment LC3B: 91.25 and 75.625
[4]; log Compound [M] -8.60189
  Fluorescence polarization, displacement experiment LC3B: 93.125 and 92.5

## Cc1ccc(C(=O)N(CCCNC(=O)CCOCCOCCOCCNC(=O)CCc2ccc3n2[B-](F)(F)[N+]2=C(c4ccc[nH]4)C=CC2=C3)[C@@H](c2nc3cc(Cl)ccc3c(=O)n2Cc2ccccc2)C(C)C)cc1 [compound 17, (R)-N-(1-(3-benzyl-7-chloro-4-oxo-3,4-dihydroquinazolin-2-yl)−2-methylpropyl)-N-(1-(5,5-difluoro-7-(1H-pyrrol-2-yl)−5H−5l4,6l4-dipyrrolo[1,2-c:2’,1’-f][1,3,2]diazaborinin-3-yl)−3,16-dioxo-7,10,13-trioxa-4,17-diazaicosan-20-yl)−4-methylbenzamide]
[1]; LC3A, 0.05% Tween20 supplemented buffer
  tracer binding in repeated protein titration: completely abolishing the putative binding
[1]; LC3A, buffer lacking detergent
  tracer affinity (protein titration for tracer KD): nanomolar
[2]; LC3A, 1 µM tracer, compound 4 for tracer 16, compound 3 for tracer 17
  NanoBRET signal / tracer displacement: no BRET signal
[2]; NanoLuciferase-tagged LC3A
  maximum BRET increase in tracer titration: ~ 1.3 fold
[3]; LC3B, 1 µM tracer, compound 4 for tracer 16, compound 3 for tracer 17
  NanoBRET signal / tracer displacement: no BRET signal
[3]; NanoLuciferase-tagged LC3B
  maximum BRET increase in tracer titration: ~ 1.3 fold
[4]; LC3B, 0.05% Tween20 supplemented buffer
  tracer binding in repeated protein titration: completely abolishing the putative binding
[4]; LC3B, buffer lacking detergent
  tracer affinity (protein titration for tracer KD): nanomolar

From PMC11589570, “Critical assessment of LC3/GABARAP ligands used for degrader development and ligandability of LC3/GABARAP binding pockets” (Nature Communications, 2024)
